# Measurements reported in patent US10149809B2, “Skin aging inhibitor and concentrate of resveratrol 3-O-α-glucoside” (priority 2014, dated 2018).
# Tests used:
# [1] = Solubility in solvent containing dipropylene glycol; assay type: physicochemical; conditions: 25 °C, water, thermodynamic from solid
# Description: (§1) Approximately 40 mg each of resveratrol 3-O-α-glucoside, resveratrol (Tokyo Chemical Industry Co., Ltd.), and resveratrol 3-O-β-glucoside (Tokyo Chemical Industry Co., Ltd.) was weighed, approximately 70 mg of a solvent (whose composition is shown in Table 18) containing ethanol (Wako Pure Chemical Industries, Ltd.) was added thereto, and the mixture was soaked in a water bath at 25° C. under light-tight conditions, and incubated for 15 hours with occasional stirring. After 15 hours, each of the samples was filtered through a 0.45 μm centrifugal filter, and then the concentration of each of the components in the filtrate was analyzed using HPLC under the same conditions as those described in Production Example 1 above. The dissolved concentration (w/v %) at 25° C. was thus determined.
# The solubility of resveratrol 3-O-α-glucoside was evaluated under the same conditions as those described in Example 18 above, except that a solvent (whose composition is shown in Table 22) containing dipropylene glycol (Asahi Glass Co., Ltd.) was used.
# Solubility in water = assay type: physicochemical; conditions: water
# Description: as §1, with “5” for “40”, “1 mL” for “70 mg”, “water” for “a solvent (whose composition is shown in Table 18) containing ethanol (Wako Pure Chemical Industries, Ltd.)”, “20” for “15”, “%) in water” for “%)”
# [2] = test system: skin model (MEL-312B; MatTek); experiment: Melanogenesis suppressing effect in skin model (amount of melanin, visual observation); assay type: cell-based; conditions: 0.2 wt % in PBS, 50 μL, 16 days; PBS control group = 100%
# Description: Resveratrol 3-O-α-glucoside, resveratrol (Tokyo Chemical Industry Co., Ltd.), or resveratrol 3-O-β-glucoside (Tokyo Chemical Industry Co., Ltd.) was prepared into a 0.2 wt % solution or suspension with the addition of PBS, and the resulting solution or suspension was used as a test substance. A skin model (MEL-312B; MatTek) was used, and 50 μL of the test substance was added to the horny layer side of the skin model and cultured in a special medium (EPI-100NMM-113; MatTek) at 37° C. for 16 days. On days 2, 4, 7, 9, 11, and 14, the medium and the test substance were replaced with fresh ones. As a control group, the same operation was performed using PBS instead of the test substance.
# After 16 days of culture, the skin model was visually observed, and the amount of melanin in the skin model was evaluated. The amount of melanin was measured using the following method. Initially, the collected skin model was subjected to enzymatic degradation by proteinase-K, and was subsequently homogenated in PBS containing 1% triton X-100. Melanin was then extracted by washing with 10% TCA and ethanol. Next, the extracted melanin was dissolved in 0.5 mL of 1N-NaOH containing 10% DMSO at 80° C. for 2 hours, and the amount of melanin was quantified by measuring absorbance at 470 nm.
# Resveratrol 3-O-α-glucoside was prepared into a 0.2 wt % solution, a 0.1 wt % solution, or a 0.01 wt % solution with the addition of PBS. The resulting solution was used as a test substance, and the melanogenesis suppressing effect was evaluated using the same method as that of Example 1 above. […]
# [3] = Storage stability in 30 vol % aqueous ethanol (coloration, residual content); assay type: physicochemical; conditions: 2 mM in 30 vol % aqueous ethanol, 40° C., light-tight, 6 months; for Residual Content (%): HPLC
# Description: Each of resveratrol 3-O-α-glucoside (produced in Production Example 1), resveratrol (Tokyo Chemical Industry Co., Ltd.), and resveratrol 4′-O-α-glucoside (produced in Production Example 1) was dissolved in a 30 vol % aqueous solution of ethanol to a concentration of 2 mM, and the solution was stored at 40° C. under light-tight conditions. The coloration of the solution after being stored for 6 months was visually observed. Further, absorbances at 430 nm of the solution before and after the storage were measured, and the residual amount of each of the components in the solution was analyzed using HPLC. HPLC was performed under the same conditions as those described in Production Example 1.
# [4] = test system: skin model (EPI-200X; MatTek); assay type: in vitro ADME, human; conditions: human, 20 h, 0.2 wt %
# Description: Using a three-dimensional human skin model, permeabilities of resveratrol 3-O-α-glucoside and resveratrol into the skin model when administered via the skin surface were compared.
# Resveratrol 3-O-α-glucoside or resveratrol (Tokyo Chemical Industry Co., Ltd.) was prepared into a 0.2 wt % solution or suspension with the addition of PBS, and the resulting solution was used as a test substance. The skin model (EPI-200X; MatTek) was loaded into a special fixture (EPI-100-FIX; MatTek), and placed in the 6-well plate of the receiver. One-hundred microliters of the test substance were added to the horny layer side, and 5 mL of PBS was added to the receiver side. After being allowed to stand at 37° C. for 20 hours, the skin model was collected, and the surface of the skin model was washed well with PBS. The skin model after being washed was homogenized in PBS. After the homogenate was centrifuged, resveratrols in the supernatant were quantified using HPLC under the same conditions as described in Production Example 1 above, and the amount of resveratrols was converted into the equivalent of agly cones.
solubility thermodynamic at 15 h [1] [µg/mL],"solubility thermodynamic at 20 h (Solubility in water; 25 °C, thermodynamic from solid) [µg/mL]","Concentration in the Skin Model (Value Converted into the Equivalent of Aglycones, μg/cm^2) [4] [μg/cm^2]",SMILES,Relative Amount of Melanin [2] [%],Coloration: Difference between Absorbances at 430 nm (Δ A 430) before and after Storage [3],Coloration: Visual Observation [3],Residual Content (%) [3] [%],"Dissolved Concentration (μg/mL) in Water (Solubility in water; 25° C., 20 hours) [µg/mL]"
30,30,7.5,"Oc1ccc(C=Cc2cc(O)cc(O)c2)cc1 [Resveratrol, resveratrol]",63,1.36,strongly,60,–
–,–,–,"OC[C@H]1O[C@H](Oc2ccc(C=Cc3cc(O)cc(O)c3)cc2)[C@H](O)[C@@H](O)[C@@H]1O [Resveratrol 4′-O-α-Glucoside, resveratrol 4′-O-α-glucoside]",–,0.21,slightly colored,86,150
